The record followed here is patent publication US11912693B2, “Compounds for modulating S1P1 activity and methods of using the same” (TREVENA, INC., priority 2017, dated 2024).

The subject of data set [1] is peripheral blood lymphocytes. Kind of data set: Peripheral blood lymphocytes (lymphopenia) in c57bl/6 mice, acute and chronic studies. The format is in vivo. Conditions: peripheral blood lymphocytes vs vehicle; 6 mg/kg sc, 7 days. On the procedure:
Compounds were tested for changes in peripheral blood lymphocytes in c57bl/6 mice. In acute studies, animals (n=5/group) were dosed subcutaneously with test compound at a dose of 3 mg/kg. Animals were sacrificed at specific time points and 500 μl of whole blood was collected in EDTA (K2) Eppendorf tubes. Blood was stored on ice and shipped immediately overnight delivery to Charles River Laboratories for analysis. CRL ran samples through their WBC/differential panel on an Advia 120 instrument. We received peripheral lymphocyte counts (10^3 cells/μl) for each blood sample. Treatment group means were compared to a vehicle treatment group for statistical significance. In chronic studies, animals (n=6-8/group) were dosed subcutaneously with test compound either in a dose response paradigm (highest dose of 3 mg/kg) or in a screening paradigm at 6 mg/kg for seven days. On the seventh day, animals were sacrificed 45 minutes after the final dose. Whole blood was collected and analyzed as described for acute studies. […]

For data set [2], the target named is human sphingosine-1-phosphate receptor 2 (S1P2) (Homo sapiens (Human), UniProt O95136). As to the kind of experiment: Inositol monophosphate production (IP-one TB kit), S1P2 CHO-K1 cells. The format is cell-based. The note with it: inositol monophosphate accumulation, hS1P2. In outline:
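Stable CHO-K1 cells expressing EA-β-arrestin2 and Prolink-tagged human S1P2, plated overnight, then exposed to compounds in IP-one stimulation buffer for 60 min at 37 °C. IP1 read by TR-FRET after 1 h at RT. Efficacy (SPAN) normalized to CYM5520; potency as pEC50.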

Data set [3] addresses T1, human sphingosine-1-phosphate receptor 1 (S1P1) (Homo sapiens (Human), UniProt P21453). As to the kind of experiment: β-Arrestin2 recruitment assay (PathHunter), S1P1 CHO-K1 cells. Type of data set: cell-based. The note with it: for hS1P1 B-arrestin2 pEC50: β-arrestin2 recruitment, S1P1 CHO-K1 cells; for Emax: CHO-K1, efficacy (SPAN) normalized to fingolimod, read-out: hS1P1 B-arrestin2 SPAN. In outline: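 Enzyme-fragment complementation read-out: agonist-driven β-arrestin2 binding to ProLink-tagged human S1P1 in stable CHO-K1 cells restores β-galactosidase, measured 1 h at room temperature after a 60 min 37° C. compound incubation. Potency as pEC50, efficacy relative to fingolimod (SPAN).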
Target sequence in this assay (P21453 whole entry, looked up, the tested form may be a part): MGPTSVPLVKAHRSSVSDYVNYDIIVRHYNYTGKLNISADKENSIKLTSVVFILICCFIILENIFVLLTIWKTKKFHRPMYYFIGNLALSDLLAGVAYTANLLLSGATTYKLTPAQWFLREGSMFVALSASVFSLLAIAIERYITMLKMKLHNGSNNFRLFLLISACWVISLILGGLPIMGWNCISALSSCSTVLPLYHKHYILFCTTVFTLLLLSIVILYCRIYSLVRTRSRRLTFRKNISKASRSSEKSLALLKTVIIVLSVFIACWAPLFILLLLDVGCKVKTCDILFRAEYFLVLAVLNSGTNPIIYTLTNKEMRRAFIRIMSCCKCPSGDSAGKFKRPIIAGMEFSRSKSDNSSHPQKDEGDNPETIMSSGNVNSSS
Target sequence in this assay (P32121 whole entry partner, looked up, the tested form may be a part): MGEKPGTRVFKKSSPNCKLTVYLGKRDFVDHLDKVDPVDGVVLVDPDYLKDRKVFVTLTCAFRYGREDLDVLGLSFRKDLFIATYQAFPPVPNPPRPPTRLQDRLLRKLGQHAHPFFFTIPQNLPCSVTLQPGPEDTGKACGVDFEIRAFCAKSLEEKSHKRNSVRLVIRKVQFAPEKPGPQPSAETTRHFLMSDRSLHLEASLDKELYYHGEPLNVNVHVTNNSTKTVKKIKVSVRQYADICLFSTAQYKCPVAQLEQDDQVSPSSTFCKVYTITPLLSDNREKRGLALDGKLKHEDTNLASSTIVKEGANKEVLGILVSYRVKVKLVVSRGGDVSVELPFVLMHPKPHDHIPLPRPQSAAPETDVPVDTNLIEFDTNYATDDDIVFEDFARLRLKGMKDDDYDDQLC
On the technique in general: Recruitment of arrestin is a read-out of receptor activation apart from second messengers.

Data set [4] addresses human sphingosine-1-phosphate receptor 3 (S1P3) (Homo sapiens (Human), UniProt Q99500). Kind of data set: Inhibition of cAMP production (HTRF), S1P3 CHO-K1 cells. Type of data set: cell-based. Conditions: inhibition of cAMP production, hS1P3. A general note: Cyclic AMP is a second messenger, typically raised through Gs and lowered through Gi signalling.
In data set [5] the target is sphingosine-1-phosphate receptor 5 (S1P5) (Homo sapiens (Human), UniProt Q9H228). Kind of data set: Inhibition of cAMP production (HTRF), S1P5 CHO-K1 cells. The format is cell-based. Conditions: inhibition of cAMP production, hS1P5.
For data set [6], the target named is T1, human sphingosine-1-phosphate receptor 1 (S1P1). Kind of data set: Inhibition of cAMP production (HTRF cAMP HiRange), S1P1 CHO-K1 cells. The format is cell-based. Conditions: for hS1P1 cAMP pEC50: inhibition of cAMP production, S1P1 CHO-K1 cells; for Emax: CHO-K1, efficacy (SPAN) normalized to fingolimod, read-out: hS1P1 cAMP SPAN. A digest of the protocol: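 CHO-K1 cells stably co-expressing human S1P1 (C-terminal Prolink tag) and EA-β-arrestin2 were grown in AssayComplete Media 6 at 37° C. and 5% CO2, plated, and incubated overnight. Agonist-driven inhibition of intracellular cAMP was read by TR-FRET with the HTRF cAMP HiRange kit on a PheraStar reader. Potency is pEC50, and efficacy (SPAN) is normalized to fingolimod.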
Target sequence in this assay (P21453 whole entry, looked up, the tested form may be a part): as the sequence (P21453 whole entry, looked up, the tested form may be a part) above

The test system of data set [7] is paclitaxel induced peripheral neuropathy. Kind of data set: Reversal of allodynia induced by paclitaxel in mice (s.c. or p.o., von Frey frequency method). Type of data set: in vivo, c57bl/6 mice. The note with it: Mus musculus; for inhibition in vivo at 3 mg/kg: po, 1 h, 3 mg/kg p.o., tested 60 min after dosing, read-out: Screen @ 3 mg/kg po (% MPE). In outline:
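Neuropathy was induced in mice by paclitaxel (6 mg/kg i.p., days 1, 3, 5, 7) or oxaliplatin (4 mg/kg i.p., days 1-5), with re-testing about 14 days later. Compounds were given s.c. (tested at 30 min) or p.o. (tested at 60 min; paclitaxel only). A 0.4 g von Frey filament was applied ten times per paw, and % non-response was converted to % MPE.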

The target of another data set is hERG channel (Homo sapiens (Human), UniProt Q12809). Kind of data set: Automated Qpatch patch-clamp hERG assay. On the technique in general: In patch-clamp work, channel activity is measured electrically.
For data set [8], the system named is A2780 human ovarian carcinoma. As to the kind of experiment: A2780 human ovarian carcinoma xenograft tumor growth delay in athymic nude mice. The note with it: monotherapy vs control; paclitaxel i.v. qod×5; ozanimod or Compound 103 p.o. qd to end; 60-day study.
Method: Female athymic nude mice (Crl:NU(NCr)-Foxnlnu, Charles River Laboratories) were implanted with A2780 human ovarian carcinoma cells to initiate tumor growth.
Each mouse received 1×10^7 cells (0.1 mL cell suspension) subcutaneously in the right flank, and tumors were monitored as their volumes approached the target range of 100 to 150 mm3. Fourteen days later, designated as Day 1 of the study, mice were sorted into six groups of ten each. […] Tumors were measured twice weekly for the study duration.
Starting on Day 1 of the study, six groups (n=10) of female athymic nude mice with established A2780 tumors were treated according to the following plan. Treatments were administered either by intravenous injection (i.v.) or oral gavage (p.o.) and were adjusted to the body weight of the individual animal. Group 1 received Vehicle 1, i.v., once every other day for five doses (qod×5) and Vehicle 2, p.o., once daily to the end of the study (qd to end), and served as the control group for efficacy analysis. Group 2, the paclitaxel monotherapy group, received paclitaxel i.v., qod×5 plus Vehicle 2, p.o., qd to end. Group 3, the ozanimod monotherapy group, received ozanimod p.o., qd to end plus Vehicle 1, i.v., qod×5. Combination Group 4 received ozanimod p.o., qd to end plus paclitaxel i.v., qod×5.
Animals were monitored individually, and each mouse was euthanized when its tumor reached the endpoint volume of 2000 mm3 or on the final day, whichever came first. The time to endpoint (TTE) was calculated for each mouse. Treatment outcome was determined from percent tumor growth delay (% TGD), defined as the percent increase in median TTE for treated versus control mice, with differences in TTE values between groups deemed statistically significant at P<0.05 using logrank survival analysis. Mice were also monitored for complete regression (CR) and partial regression (PR) responses. An animal with a CR at the end of the study was additionally classified as a tumor-free survivor (TFS). Treatment tolerability was assessed by body weight measurements and frequent observation for clinical signs of treatment-related side effects.

Usually IC50 stands for the point on the concentration scale where inhibition reaches its midpoint. Read a high IC50 as a need for much substance.

Sequence of hERG channel (Q12809 whole entry): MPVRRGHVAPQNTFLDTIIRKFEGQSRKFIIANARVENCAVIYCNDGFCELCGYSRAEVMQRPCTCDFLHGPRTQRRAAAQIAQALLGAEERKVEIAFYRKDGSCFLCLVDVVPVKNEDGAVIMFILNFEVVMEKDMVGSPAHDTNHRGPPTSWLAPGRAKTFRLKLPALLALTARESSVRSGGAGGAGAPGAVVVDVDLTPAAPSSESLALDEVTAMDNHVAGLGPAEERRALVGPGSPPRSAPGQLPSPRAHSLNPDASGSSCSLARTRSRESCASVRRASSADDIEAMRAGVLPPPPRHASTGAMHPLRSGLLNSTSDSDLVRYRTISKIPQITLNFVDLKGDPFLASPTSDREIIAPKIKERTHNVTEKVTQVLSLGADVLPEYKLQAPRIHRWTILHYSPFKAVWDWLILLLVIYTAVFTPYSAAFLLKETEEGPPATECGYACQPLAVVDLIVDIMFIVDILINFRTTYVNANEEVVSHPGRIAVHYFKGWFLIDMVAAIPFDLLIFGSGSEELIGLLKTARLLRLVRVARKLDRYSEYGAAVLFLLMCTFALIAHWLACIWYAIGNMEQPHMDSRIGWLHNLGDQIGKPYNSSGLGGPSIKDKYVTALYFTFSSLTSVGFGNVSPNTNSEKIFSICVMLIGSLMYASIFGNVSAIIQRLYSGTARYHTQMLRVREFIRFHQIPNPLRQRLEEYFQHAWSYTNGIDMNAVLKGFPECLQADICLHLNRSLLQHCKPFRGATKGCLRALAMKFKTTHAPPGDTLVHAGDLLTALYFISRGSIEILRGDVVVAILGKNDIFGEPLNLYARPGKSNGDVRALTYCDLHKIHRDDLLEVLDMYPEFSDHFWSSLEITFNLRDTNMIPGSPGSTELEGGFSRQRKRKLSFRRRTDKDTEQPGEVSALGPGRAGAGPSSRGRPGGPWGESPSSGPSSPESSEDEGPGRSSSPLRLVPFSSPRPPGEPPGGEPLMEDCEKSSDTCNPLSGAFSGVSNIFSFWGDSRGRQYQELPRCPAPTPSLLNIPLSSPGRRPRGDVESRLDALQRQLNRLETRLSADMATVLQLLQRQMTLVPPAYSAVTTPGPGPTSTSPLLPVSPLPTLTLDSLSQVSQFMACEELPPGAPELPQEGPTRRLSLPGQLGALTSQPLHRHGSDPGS
Sequence of human sphingosine-1-phosphate receptor 2 (S1P2) (O95136 whole entry): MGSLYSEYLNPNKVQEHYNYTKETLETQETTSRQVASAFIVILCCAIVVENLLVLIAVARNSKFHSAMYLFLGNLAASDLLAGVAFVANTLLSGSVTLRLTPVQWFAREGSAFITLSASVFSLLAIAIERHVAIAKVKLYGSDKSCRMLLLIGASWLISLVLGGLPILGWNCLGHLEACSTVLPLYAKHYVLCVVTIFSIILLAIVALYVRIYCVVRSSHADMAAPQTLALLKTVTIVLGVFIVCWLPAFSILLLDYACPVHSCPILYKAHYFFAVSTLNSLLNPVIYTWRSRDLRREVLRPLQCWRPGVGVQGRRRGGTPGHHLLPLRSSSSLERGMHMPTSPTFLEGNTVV
Sequence of human sphingosine-1-phosphate receptor 3 (S1P3) (Q99500 whole entry): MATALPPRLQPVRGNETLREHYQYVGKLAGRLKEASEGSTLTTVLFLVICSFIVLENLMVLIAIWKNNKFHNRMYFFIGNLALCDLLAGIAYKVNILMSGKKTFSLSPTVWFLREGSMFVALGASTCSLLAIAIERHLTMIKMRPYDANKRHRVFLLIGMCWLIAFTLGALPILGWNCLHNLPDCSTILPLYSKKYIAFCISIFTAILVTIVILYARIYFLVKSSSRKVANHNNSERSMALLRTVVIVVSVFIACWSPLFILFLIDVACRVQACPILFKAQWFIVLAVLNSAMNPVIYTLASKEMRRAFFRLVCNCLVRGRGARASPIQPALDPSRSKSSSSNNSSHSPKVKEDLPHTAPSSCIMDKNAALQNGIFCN
Sequence of sphingosine-1-phosphate receptor 5 (S1P5) (Q9H228 whole entry): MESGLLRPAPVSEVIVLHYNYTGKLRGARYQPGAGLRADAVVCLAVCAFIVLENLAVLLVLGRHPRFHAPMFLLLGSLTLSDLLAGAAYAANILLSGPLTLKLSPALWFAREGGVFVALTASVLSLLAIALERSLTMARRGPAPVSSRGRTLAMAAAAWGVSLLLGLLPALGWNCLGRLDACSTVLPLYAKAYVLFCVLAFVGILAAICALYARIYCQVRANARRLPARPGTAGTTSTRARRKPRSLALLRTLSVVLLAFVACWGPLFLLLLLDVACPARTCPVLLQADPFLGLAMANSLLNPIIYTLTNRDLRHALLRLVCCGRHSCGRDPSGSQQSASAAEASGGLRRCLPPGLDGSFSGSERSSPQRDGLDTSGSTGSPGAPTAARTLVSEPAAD

On to `CC(C)n1nnc2cc(-c3nc(-c4cccc5c4OCO5)no3)ccc21` [Compound 32, 3-(benzo[d][1,3]dioxol-4-yl)-5-(1-isopropyl-1H-benzo[d][1,2,3]triazol-5-yl)-1,2,4-oxadiazole], for which the “Lymphopenia: Effect and Doses, mg/kg, sc” value in [1] is “no change: 6 mg/kg, 7 days”. In addition, the “hS1P2 IP-one pEC50” value in data set [2] is under 5.0. In addition, the “hS1P1 B-arrestin2 pEC50” value in data set [3] is on record as over 5. The “hS1P3 cAMP pEC50” value in [4] is under 5.0. Moreover, the “hS1P5 cAMP pEC50” value in data set [5] was under 5.0. The “hS1P1 cAMP pEC50” value in data set [6] is listed as over 6.5.

Turning to `Cc1ccccc1-c1noc(-c2ccc3c(c2)nnn3CC(C)C)n1` [Compound 96, 5-[3-(2-methylphenyl)-1,2,4-oxadiazol-5-yl]-1-(2-methylpropyl)-1H-1,2,3-benzotriazole], the “Lymphopenia: Effect and Doses, mg/kg, sc” value in data set [1] is recorded as “no change: 6 mg/kg, 7 days”. Besides, in data set [3], the Emax was over 75% and the “hS1P1 B-arrestin2 pEC50” value is given as over 5. The inhibition in vivo at 1 mg/kg in data set [7] (sc, 0.5 h, 1 mg/kg s.c., tested 30 min after dosing, read-out: Screen @ 1 mg/kg sc (% MPE)) was over 50%. Besides, in [6], the Emax is over 75% and the “hS1P1 cAMP pEC50” value is given as over 6.5.

Turning to `CC(F)(F)CNc1ccc(-c2nnc(-c3ccc4[nH]ncc4c3)o2)cc1C#N` [Compound 355, 2-[(2,2-difluoropropyl)amino]-5-[5-(1H-indazol-5-yl)-1,3,4-oxadiazol-2-yl]benzonitrile], the “Lymphopenia: Effect and Doses, mg/kg, sc” value in data set [1] is “no change: 6 mg/kg, 7 days”. Further, the “hS1P1 B-arrestin2 pEC50” value in data set [3] was over 5. For the same compound, the inhibition in vivo at 3 mg/kg in data set [7] was over 50%. In addition, the “hS1P1 cAMP pEC50” value in data set [6] is over 6.5.

In the case of `CC(C)Nc1ccc(-c2nnc(-c3ccc4[nH]cnc4c3)o2)cc1C#N` [Compound 356, 5-[5-(1H-1,3-benzodiazol-5-yl)-1,3,4-oxadiazol-2-yl]-2-[(propan-2-yl)amino]benzonitrile], the “Lymphopenia: Effect and Doses, mg/kg, sc” value in data set [1] is “no change: 6 mg/kg, 7 days”. For the same compound, in [3], the Emax is over 75% and the “hS1P1 B-arrestin2 pEC50” value is over 5. For the same compound, the inhibition in vivo at 3 mg/kg in [7] is over 50%. In data set [6], the Emax was over 75% and the “hS1P1 cAMP pEC50” value was over 6.5.

Take `N#Cc1cc(-c2nc(-c3ccc4oc(=O)[nH]c4c3)no2)ccc1NCC1CC1` [Compound 423, 2-((cyclopropylmethyl)amino)-5-(3-(2-oxo-2,3-dihydrobenzo[d]oxazol-5-yl)-1,2,4-oxadiazol-5-yl)benzonitrile]: the “Lymphopenia: Effect and Doses, mg/kg, sc” value in [1] was “no change: 6 mg/kg, 7 days”. The “hS1P2 IP-one pEC50” value in data set [2] is on record as over 5.0. In addition, the “hS1P1 B-arrestin2 pEC50” value in data set [3] is over 5. For the same compound, the inhibition in vivo at 3 mg/kg in [7] was over 50%. Moreover, in data set [4], the “hS1P3 cAMP pEC50” value was over 5.0. In [6], the “hS1P1 cAMP pEC50” value was over 6.5.

Regarding `N#Cc1cc(-c2nc(-c3ccc4c(c3)NC(=O)C4)no2)ccc1NCC1CC1` [Compound 497, 2-((cyclopropylmethyl)amino)-5-(3-(2-oxoindolin-6-yl)-1,2,4-oxadiazol-5-yl)benzonitrile], the “hS1P1 B-arrestin2 pEC50” value in [3] is recorded as over 5. The inhibition in vivo at 3 mg/kg in data set [7] was under 50%. On hERG channel, this compound had an IC50 of over 10 µM. Also, the “hS1P1 cAMP pEC50” value in [6] is reported as over 6.5.

Turning to `CC(F)(F)CNc1ccc(-c2nnc(-c3ccc4[nH]cnc4c3)o2)cc1C#N` [Compound 520, 5-[5-(1H-1,3-benzodiazol-5-yl)-1,3,4-oxadiazol-2-yl]-2-[(2,2-difluoropropyl)amino]benzonitrile], in [1], the “Lymphopenia: Effect and Doses, mg/kg, sc” value is “no change: 6 mg/kg, 7 days”. In [3], the Emax was over 75% and the “hS1P1 B-arrestin2 pEC50” value is over 5. The inhibition in vivo at 3 mg/kg in data set [7] was over 50%. For the same compound, the IC50 at hERG channel is over 10 µM. Further, in data set [6], the Emax was over 75% and the “hS1P1 cAMP pEC50” value is reported as over 6.5.

As for `CCC1(CC)CC(=O)c2cc(-c3nc(-c4ccc(NC(C)=O)cc4OC)no3)ccc2O1` [Compound 531, N-{4-[5-(2,2-diethyl-4-oxo-3,4-dihydro-2H-1-benzopyran-6-yl)-1,2,4-oxadiazol-3-yl]-3-methoxyphenyl}acetamide], the “Lymphopenia: Effect and Doses, mg/kg, sc” value in data set [1] is listed as “no change: 6 mg/kg, 7 days”. Moreover, the “hS1P1 B-arrestin2 pEC50” value in data set [3] is over 5. The inhibition in vivo at 3 mg/kg in data set [7] was over 50%. For the same compound, the “hS1P1 cAMP pEC50” value in data set [6] is recorded as over 6.5.

As to `CC(C)Nc1ccc(-c2nc(-c3ccc4nonc4c3)no2)cc1C#N` [Compound 730, 5-[3-(2,1,3-benzoxadiazol-5-yl)-1,2,4-oxadiazol-5-yl]-2-[(propan-2-yl)amino]benzonitrile], the “Lymphopenia: Effect and Doses, mg/kg, sc” value in data set [1] is recorded as “no change: 6 mg/kg, 7 days”. In data set [7], the inhibition in vivo at 3 mg/kg was over 50%. On hERG channel, the IC50 is over 10 µM.

Consider `CC(C)Oc1ccc(-c2ncc(-c3cccnc3)cn2)cc1C#N` [Compound 738, 2-isopropoxy-5-(5-(pyridin-3-yl)pyrimidin-2-yl)benzonitrile], for which the IC50 against hERG channel was over 10 µM.

With `CC(C)Oc1ccc(-c2ncc(-c3ccccn3)cn2)cc1C#N` [Compound 742, 2-isopropoxy-5-(5-(pyridin-2-yl)pyrimidin-2-yl)benzonitrile], the IC50 at hERG channel is over 10 µM.

The compound `CC(C)Nc1ccc(-c2ncc(-c3ccnc(O)c3)cn2)cc1C#N` [Compound 743, 5-(5-(2-hydroxypyridin-4-yl)pyrimidin-2-yl)-2-(isopropylamino) benzonitrile] registered an IC50 at hERG channel of over 10 µM.

For `CC(C)Oc1ccc(-c2ncc(-c3ccnc(O)c3)cn2)cc1C#N` [Compound 744, 5-(5-(2-hydroxypyridin-4-yl)pyrimidin-2-yl)-2-isopropoxybenzonitrile], the IC50 against hERG channel is over 10 µM.

`CC(=O)O[C@H]1C(=O)[C@@]2(C)[C@H]([C@H](OC(=O)c3ccccc3)[C@]3(O)C[C@H](OC(=O)[C@H](O)[C@@H](NC(=O)c4ccccc4)c4ccccc4)C(C)=C1C3(C)C)[C@]1(OC(C)=O)CO[C@@H]1C[C@@H]2O` [Paclitaxel, reference compound]: the “percent tumor growth delay (% TGD), monotherapy” value in data set [8] was determined as 128%.

In the case of `CC(C)Oc1ccc(-c2nc(-c3cccc4c3CC[C@@H]4NCCO)no2)cc1C#N` [ozanimod, reference compound], the “percent tumor growth delay (% TGD), monotherapy” value in data set [8] is 31%.
